pIC50: −log10 of the molar value. Like-named read-outs stand apart in the source and are kept apart here.
How the values were obtained:
[1] = Evaluation of blood-brain barrier (BBB) permeability through oral administration; assay type: in vivo, mice; conditions: mice, oral, dose 30 mg/kg, 4 hr; for Kp at 4 h / concentration at 4 h: mouse, in vivo; for Kp at 4 h: read-out: Mean brain-plasma drug ratio at 4 hr
Method in brief: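 Mice dosed orally at 10 or 30 mg/10 ml/kg, suspended in 0.5% methyl cellulose with 0.2% Tween 80. Plasma and forebrain homogenate taken 4 hours post-dose, drug measured by LC-MS/MS; brain/plasma ratio calculated from tissue concentrations.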

[2] = tested on: GM1 production in Jurkat cells; experiment: cells; assay type: cell-based
[3] = target: glucosylceramide synthase (GCS) (Homo sapiens (Human), UniProt Q16739); experiment: Evaluation of inhibitory activities against GCS (A549 cell lysate, NBD C6-ceramide, HPLC); assay type: biochemical
glucosylceramide synthase (GCS), sequence (Q16739 whole entry): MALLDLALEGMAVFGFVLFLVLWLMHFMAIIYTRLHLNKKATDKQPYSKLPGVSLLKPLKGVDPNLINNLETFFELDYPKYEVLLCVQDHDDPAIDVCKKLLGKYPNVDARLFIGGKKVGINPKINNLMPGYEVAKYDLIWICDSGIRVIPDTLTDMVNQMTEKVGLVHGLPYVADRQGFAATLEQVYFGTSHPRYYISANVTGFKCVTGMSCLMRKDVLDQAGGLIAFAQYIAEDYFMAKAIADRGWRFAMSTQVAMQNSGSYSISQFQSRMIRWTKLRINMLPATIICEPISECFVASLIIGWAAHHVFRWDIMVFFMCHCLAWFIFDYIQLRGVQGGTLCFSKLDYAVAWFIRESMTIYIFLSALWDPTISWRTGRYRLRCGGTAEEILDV
Method in brief: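 GCS activity in A549 cell lysate (50 mM HEPES, pH 7.3) with NBD C6-ceramide, reacted 90 min at 37 °C. Lipids were chloroform/methanol-extracted and separated by normal-phase HPLC with fluorescence detection (ex 470/em 530 nm). GlcCer fraction of peak area was normalized between DMSO and ibiglustat, and IC50 obtained by curve fitting.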

[4] = read-out: Mean drug concentrations in brain tissue at 4 hr
[5] = read-out: Mean drug concentrations in plasma at 4 hr
[6] = % GCS activity, A549 cell lysate, 37° C. for 90 minutes, read-out: IC50

| Compound | Kp at 4 h [1] | concentration at 4 h [1, 4] [ng/g] | concentration at 4 h [1, 5] [ng/mL] | pIC50 ([2]; Homo sapiens, Jurkat, 72 h) | pIC50 [3] | Mean brain-plasma drug ratio at 4 hr [1] | Mean drug concentrations in brain tissue at 4 hr [1] [ng/g] | Mean drug concentrations in plasma at 4 hr [1] [ng/mL] | pIC50 ([2]; read-out: IC50) | pIC50 [3, 6] |
| --- | --- | --- | --- | --- | --- | --- | --- | --- | --- | --- |
| CCCOc1c(C)cc(-c2ccc3c(c2)CCC(C)(C)[C@H]3NC(=O)O[C@@H]2CN3CCC2CC3)cc1C [Example 148, (S)-quinuclidin-3-yl((R)-6-(3,5-dimethyl-4-propoxyphenyl)-2,2-dimethyl-1,2,3,4-tetrahydronaphthalen-1-yl)carbamate] | 1.82 | 1680 | 951 | 8.05 | 8.80 | – | – | – | – | – |
| CC(C)Oc1ccc(-c2cc3c(cc2F)[C@H](NC(=O)O[C@@H]2CN4CCC2CC4)C(C)(C)C3)cc1F [Example 83, (S)-quinuclidin-3-yl((R)-6-fluoro-5-(3-fluoro-4-isopropoxyphenyl)-2,2-dimethyl-2,3-dihydro-1H-inden-1-yl)carbamate] | 6.29 | 7370 | 1170 | 7.98 | 9.24 | – | – | – | – | – |
| COc1ccc(-c2ccc3c(c2)CCC(C)(C)[C@H]3NC(=O)O[C@@H]2CN3CCC2CC3)c(F)c1 [Example 151, (S)-quinuclidin-3-yl((R)-6-(2-fluoro-4-methoxyphenyl)-2,2-dimethyl-1,2,3,4-tetrahydronaphthalen-1-yl) carbamate] | – | – | – | – | – | 2.04 | 2441.3 | 1196.4 | 8.28 | 9.31 |
| CC(C)Oc1ccc(-c2ccc3c(c2)CC(C)(C)[C@H]3NC(=O)O[C@@H]2CN3CCC2CC3)c(Cl)c1 [Example 32, (S)-quinuclidin-3-yl((R)-5-(2-chloro-4-isopropoxyphenyl)-2,2-dimethyl-2,3-dihydro-1H-inden-1-yl)carbamate] | 4.23 | 5650 | 1340 | 8.37 | 9.72 | – | – | – | – | – |
| CC1(C)Cc2cc(-c3ccc(OCC4CC4)c(Cl)c3)ccc2[C@@H]1NC(=O)O[C@@H]1CN2CCC1CC2 [Example 39, (S)-quinuclidin-3-yl((R)-5-(3-chloro-4-(cyclopropylmethoxy)phenyl)-2,2-dimethyl-2,3-dihydro-1H-inden-1-yl)carbamate] | 9.85 | 5510 | 564 | 8.96 | 8.99 | – | – | – | – | – |
| COc1ccc(-c2cc3c(cc2F)[C@H](NC(=O)O[C@@H]2CN4CCC2CC4)C(C)(C)C3)cc1F [Example 89, (S)-quinuclidin-3-yl((R)-6-fluoro-5-(3-fluoro-4-methoxyphenyl)-2,2-dimethyl-2,3-dihydro-1H-inden-1-yl)carbamate] | 5.42 | 4040 | 751 | 7.36 | 9.21 | – | – | – | – | – |
| CCOc1ccc(-c2cc3c(cc2F)[C@H](NC(=O)O[C@@H]2CN4CCC2CC4)C(C)(C)CC3)cc1 [Example 176, (S)-quinuclidin-3-yl((R)-6-(4-ethoxyphenyl)-7-fluoro-2,2-dimethyl-1,2,3,4-tetrahydronaphthalen-1-yl)carbamate] | 3.58 | 4860 | 1360 | 8.68 | 9.62 | – | – | – | – | – |
| CCCOc1c(C)cc(-c2cc3c(cc2F)[C@H](NC(=O)O[C@@H]2CN4CCC2CC4)C(C)(C)C3)cc1C [Example 64, (S)-quinuclidin-3-yl((R)-5-(3,5-dimethyl-4-propoxyphenyl)-6-fluoro-2,2-dimethyl-2,3-dihydro-1H-inden-1-yl)carbamate] | 4.43 | 1040 | 234 | 7.94 | 8.41 | – | – | – | – | – |
| CC1(C)Cc2cc(-c3ccc(OCC4CC4)cc3Cl)ccc2[C@@H]1NC(=O)O[C@@H]1CN2CCC1CC2 [Example 38, (S)-quinuclidin-3-yl((R)-5-(2-chloro-4-(cyclopropylmethoxy)phenyl)-2,2-dimethyl-2,3-dihydro-1H-inden-1-yl)carbamate] | 5.6 | 3640 | 670 | 8.49 | 10.30 | – | – | – | – | – |
| COc1cc(-c2ccc3c(c2)CC(C)(C)[C@H]3NC(=O)O[C@@H]2CN3CCC2CC3)ccc1OC(C)C [Example 35, (S)-quinuclidin-3-yl((R)-5-(4-isopropoxy-3-methoxyphenyl)-2,2-dimethyl-2,3-dihydro-1H-inden-1-yl)carbamate] | 1.85 | 2010 | 1080 | 8.48 | 8.65 | – | – | – | – | – |
| CCCOc1ccc(-c2cc3c(cc2F)[C@H](NC(=O)O[C@@H]2CN4CCC2CC4)C(C)(C)C3)cc1Cl [Example 87, (S)-quinuclidin-3-yl((R)-5-(3-chloro-4-propoxyphenyl)-6-fluoro-2,2-dimethyl-2,3-dihydro-1H-inden-1-yl)carbamate] | 8.57 | 972 | 114 | 7.44 | 9.11 | – | – | – | – | – |
| (S)-quinuclidin-3-yl((R)-6-(2-chloro-4-isopropoxyphenyl)-7-fluoro-2,2-dimethyl-1,2,3,4-tetrahydronaphthalen-1-yl) carbamate [Example 199] | – | – | – | – | – | 1.165 | 2689 | 2327.6 | 10.52 | 9.72 |
| Cc1cc(OC(C)C)ccc1-c1cc2c(cc1F)[C@H](NC(=O)O[C@@H]1CN3CCC1CC3)C(C)(C)C2 [Example 96, (S)-quinuclidin-3-yl((R)-6-fluoro-5-(4-isopropoxy-2-methylphenyl)-2,2-dimethyl-2,3-dihydro-1H-inden-1-yl)carbamate] | 6.24 | 5360 | 864 | 9.12 | 10.10 | – | – | – | – | – |
| CCOc1ccc(-c2cc3c(cc2F)[C@H](NC(=O)O[C@@H]2CN4CCC2CC4)C(C)(C)C3)c(Cl)c1 [Example 104, (S)-quinuclidin-3-yl((R)-5-(2-chloro-4-ethoxyphenyl)-6-fluoro-2,2-dimethyl-2,3-dihydro-1H-inden-1-yl)carbamate] | 3.76 | 5180 | 1380 | 8.85 | 10.00 | – | – | – | – | – |
| CC(C)Oc1ccc(-c2cc3c(cc2F)[C@H](NC(=O)O[C@@H]2CN4CCC2CC4)C(C)(C)CC3)cc1Cl [Example 193, (S)-quinuclidin-3-yl((R)-6-(3-chloro-4-isopropoxyphenyl)-7-fluoro-2,2-dimethyl-1,2,3,4-tetrahydronaphthalen-1-yl)carbamate] | 3.46 | 3020 | 871 | 8.17 | 9.11 | – | – | – | – | – |
| Cc1ccc(-c2cc3c(cc2F)[C@H](NC(=O)O[C@@H]2CN4CCC2CC4)C(C)(C)C3)cc1Cl [Example 84, (S)-quinuclidin-3-yl((R)-5-(3-chloro-4-methylphenyl)-6-fluoro-2,2-dimethyl-2,3-dihydro-1H-inden-1-yl)carbamate] | 7.23 | 4940 | 683 | 7.76 | 9.54 | – | – | – | – | – |
| CC(C)Oc1ccc(-c2ccc3c(c2)CCC(C)(C)[C@H]3NC(=O)O[C@@H]2CN3CCC2CC3)cc1F [Example 161, (S)-quinuclidin-3-yl((R)-6-(3-fluoro-4-isopropoxyphenyl)-2,2-dimethyl-1,2,3,4-tetrahydronaphthalen-1-yl)carbamate] | 3.97 | 4840 | 1240 | 8.35 | 8.13 | – | – | – | – | – |
| COc1c(C)cc(-c2cc3c(cc2F)[C@H](NC(=O)O[C@@H]2CN4CCC2CC4)C(C)(C)CC3)cc1C [Example 180, (S)-quinuclidin-3-yl((R)-7-fluoro-6-(4-methoxy-3,5-dimethylphenyl)-2,2-dimethyl-1,2,3,4-tetrahydronaphthalen-1-yl)carbamate] | 1.34 | 1510 | 1140 | 8.10 | 8.88 | – | – | – | – | – |

Source: US20240262819A1, “NOVEL COMPOUNDS HAVING INHIBITORY ACTIVITY AGAINST GLUCOSYLCERAMIDE SYNTHASE OR PHARMACEUTICALLY ACCEPTABLE SALT THEREOF, PROCESSES FOR PREPARING THE SAME, AND PHARMACEUTICAL COMPOSITIONS COMPRISING THE SAME” (YUHAN CORPORATION, priority 2021, published 2024)
